# Reference: patent US6551582B2, “Deodorant composition” (Sumitomo Chemical Company, Limited, priority 2001, dated 2003)
# Assay: Test Example 1: deodorant effect of sprayed liquid formulations against ammonia gas in a flask
# Details: after 30 minutes, about 20° C.
# Procedure: Into a glass Erlenmeyer flask (1L-volume), 1 mL of 1.8% aqueous solution of ammonia was placed at room temperature (about 20° C.). After the flask was sealed with a rubber stopper and shaken to be filled with ammonia gas, the concentration of ammonia was measured with a gas detector tube (No. 3HM, Gastec Corporation).
# Next, 1 mL of each formulation obtained in Production example 1 was sprayed into the flask. The concentration of ammonia was measured with a gas detector tube (No. 3HM, Gastec Corporation) after 30 minutes. A control solution (1 mL) of a mixed solvent without the present deodorant compound was added into an Erlenmeyer flask (1 L-volume) containing ammonia gas, and then the […] of ammonia was measured with the same method after 30 minutes.
# Dehydroacetic acid was formulated in the same manner as Production example 1, and then comparative test was carried out by the same method.
# The formulations obtained in Production example 2 and 3 were provided to the same test.
# Deodorant rates were calculated by formula 1. [formula]
substance,measurement,setting,value
dehydroacetic acid,Deodorant rate (%) Production example 1,"1 mL formulation of Production example 1 (5 parts compound, 80 parts ethanol, 15 parts water) sprayed",20%
same,Deodorant rate (%) Production example 2,"1 mL formulation of Production example 2 (5 parts compound, 80 parts isopropyl alcohol, 15 parts water) sprayed",25%
same,Deodorant rate (%) Production example 3,"1 mL formulation of Production example 3 (5 parts compound, 80 parts glycerin, 15 parts water) sprayed",25%
